Measured values published in PMC5450539, “Anti-Inflammatory Activity and Structure-Activity Relationships of Brominated Indoles from a Marine Mollusc” (Marine Drugs, 2017).
Where a name gives a salt, the structure may show the parent alone. Read-outs that look alike come from different tables or passages of the source.

How the values were obtained:
PGE2 = test system: PGE2; design: method as in Matheus et al. [37]; settings: ref Matheus et al. [37]; cited from earlier work
NO production = test system: NO production; design: method as in Matheus et al. [37]; settings: ref Matheus et al. [37]; cited from earlier work
[1] = test system: 3T3 ccl-92 mouse fibroblast; test: Crystal violet cytotoxicity assay, 3T3 ccl-92; format: cell-based; settings: 24 h incubation; max test concentration 50 µg/mL; > = <50% reduction in viability at max
Protocol: (§1) All extract/compounds were dissolved in DMSO and tested at 5 different concentrations of 50, 10, 2, 0.4, and 0.08 μg/mL for all anti-inflammatory assays unless otherwise noted. The final concentration of DMSO was 0.35% v/v for extracts and compounds. All samples were tested in triplicate at each concentration and each assay was independently repeated at least 3 times. The concentrations used for the cytotoxicity assays were 50, 25, 12.5, 6.25. and 3.125 μg/mL.
(§2) To check for cytotoxicity of the extracts and compounds against RAW264.7 mouse macrophage and 3T3 ccl-92 mouse fibroblast cell lines, the crystal violet cytotoxicity test was used according to the published protocol. In brief, RAW264.7 cells were seeded with a density of 2 × 10^4 cells/well in a 96-well plate and then incubated for 18–24 h. The following day the compounds/extracts were added and then incubated for 24 h before the media was aspirated and the cells washed twice in a gentle stream of water. After removing the water, 50 µL of 0.5% crystal violet staining solution were added and the cells were incubated for 20 min at room temperature. The plate was then washed 4 times with water and air dried for 2 h. Finally, 200 μL of methanol was added to each well and incubated for 20 min at room temperature on a rocker. This was followed by measuring the optical density at 570 nm with a plate reader Anthos Zenyth 200rt (Anthos Labtec Instruments, Heerhugowaard, The Netherlands). Chlorambucil was used as a positive control.

[2] = test system: RAW264.7 mouse macrophage; test: Crystal violet cytotoxicity assay, RAW264.7; settings: 24 h incubation; max test concentration 50 µg/mL; > = <50% reduction in viability at max, ~ = close to 50%
Protocol: as §1, §2

[3] = Crystal violet cytotoxicity assay, RAW264.7; settings: mouse
Protocol: as §1, §2

[4] = test system: nitric oxide (NO) production; test: NO inhibition assay (Greiss) in LPS-stimulated RAW264.7 macrophages; format: cell-based, mouse; settings: for IC50: read-out: NO IC50; for NO inhibitory activity (in words): LPS-stimulated RAW264.7, up to 50 µg/mL; for lowest concentration with significant inhibition of NO production: significant vs DMSO control
Protocol: RAW264.7 macrophages were incubated 1 h with extracts/compounds prior to the addition of LPS. […] Then, 20 h after the addition of LPS, the supernatant was collected. […] The plates were incubated for 15–20 min in the dark, then read at 550 nm wavelength on an Anthos Zenyth 200rt (Anthos Labtec Instruments). Sodium nitrite was used to prepare a standard curve to quantify the nitrite from the absorbance readings in this assay. All data were processed in Microsoft Office Excel 2013 (MS) first to obtain descriptive statistics. One-way Analysis of Variance (ANOVA) followed by Dunnett’s multiple comparisons test was performed using GraphPad Prism version 6.00 for Windows (GraphPad Software, La Jolla, CA, USA, www.graphpad.com), with p < 0.05 considered significant.

TNFα production = test: TNF-alpha inhibition assay (ELISA) in LPS-stimulated RAW264.7 macrophages; format: cell-based, mouse; settings: for IC50: max test concentration 50 µg/mL, read-out: TNFα IC50
Protocol: The amount of TNFα was quantified in cell culture media using murine TNFα ELISA kits (BD bioscience). In brief, the RAW264.7 mouse macrophages (6 × 10^5 cells/mL) were stimulated with LPS (100 ng/mL) 1 h after treatment with several concentrations of extracts (0.08–50 μg/mL). After 18 h, the supernatant was collected and TNFα production was measured by reading the absorbance at 450 nm wavelength on an Anthos Zenyth 200rt microplate reader (Anthos Labtech Instruments). Dexamethasone at a concentration of 2.5 μM was used as a positive control, with a negative control of 0.35% DMSO.
(§3) All data were processed in Microsoft Office Excel 2013 (MS) first to obtain descriptive statistics. One-way Analysis of Variance (ANOVA) followed by Dunnett’s multiple comparisons test was performed using GraphPad Prism version 6.00 for Windows (GraphPad Software, La Jolla, CA, USA, www.graphpad.com), with p < 0.05 considered significant. The inhibitory concentration responsible for a 50% reduction in cell viability or production of inflammatory markers (IC50) was calculated using the regression analysis, Probit in SPSS v21.

NFκB translocation = test: Assessment of NFκB translocation in LPS-stimulated RAW264.7; format: cell-based; settings: Mus musculus, RAW264.7, 40 µg/mL, LPS-stimulated RAW264.7, relative to DMSO + LPS
Protocol: This assay was performed according to the published protocol in Olivera et al.. RAW264.7 mouse macrophages were seeded at 400,000 cells/well in 800 μL in 4-well chambered slides and incubated overnight. The cells were then incubated with the test samples (40 μg/mL HBG extract, 6-bromoisatin, or 6-bromoindole) for 1 h prior to stimulation with LPS (700 ng/mL) for 30 min. After stimulation, the cells were washed with PBS and fixed with 3.7% paraformaldehyde for 15 min. […] The cells were washed with PBS and incubated with rabbit anti-p65 NFκB antibody (1:500) and goat anti-mouse IκB (1:500) overnight at 4 °C. The following day, the cells were washed again three times with PBS and incubated for 1 h with goat-anti-rabbit IgG conjugated with Alexa Fluor 594 (1:1000) and donkey anti-mouse IgG conjugated with Alexa fluor 488 (1:1000) at room temperature. Finally, the cells were washed with PBS then mounted with Prolong mounting media containing DAPI before visualising using the Olympus Flouview FVi10 confocal microscope (Olympus, Tokyo, Japan). Using ImageJ (v1.50i, National Institutes of Health, Bethesda, MD, USA), an outline was drawn around each nucleus by adjusting the colour threshold of DAPI. Mean fluorescence inside the nucleus was measured, along with several adjacent background readings. The total corrected cellular fluorescence (TCCF) was calculated by applying the equation TCCF = integrated density − (area of selected cell × mean fluorescence of background readings). This TCCF was then used to calculate the %inhibition of the NFκB translocation against the positive control where the cells were treated with LPS in the presence of the Vehicle (0.35% DMSO v/v) in Microsoft Office Excel 2013 (Redmond, WA, USA).

PGE2 production = test: PGE2 inhibition assay (ELISA) in calcium ionophore-stimulated 3T3 ccl-92 fibroblasts; format: cell-based, mouse; settings: for IC50: calcium ionophore-stimulated 3T3 ccl-92, max test concentration 50 µg/mL
Protocol: The levels of PGE2 were measured in cell media using a Cayman Prostaglandin E2 Express ELISA Kit (Cayman Chemical, Ann Arbor, MI, USA) according to the manufacturer’s instructions. In brief, the 3T3 ccl-92 fibroblasts (1 × 10^5 cells/mL) were grown overnight in a 96-well plate and then treated with extracts/compounds 3 h before being stimulated with Calcium ionophore (50 μM). After 20 min, supernatants were collected and PGE2 production was quantified by measuring the absorbance at 405 nm wavelength with an Anthos Zenyth 200rt (Anthos Labtech Instruments). Indomethacin at a concentration of 100 μM was used as a positive control and ~0.5% DMSO as a negative control.
as §3

[5] = Mus musculus, RAW264.7, LPS-stimulated RAW264.7, max test concentration 50 µg/mL
[6] = Mus musculus, RAW264.7, LPS-stimulated RAW264.7

## O=C1Nc2cccc(Br)c2C1=O [4-bromoisatin]
PGE2
  inhibition of PGE2 (in words): did not inhibit
NO production
  inhibition of NO production (in words): did not inhibit

## O=C1Nc2ccc(Br)cc2C1=O [5-bromoisatin]
[1]
  Cytotoxicity 3T3 ccl-92 (test concentration which causes toxicity): NA (not active at maximum test concentration 50 µg/mL)
[2]
  Cytotoxicity RAW264.7 (test concentration which causes toxicity): ~221.21 µM
[3]
  viability at 24 h, 50 µg/mL: 55%
[4]; LPS-stimulated RAW264.7, max test concentration 50 µg/mL, listed as 5-bromoisatin (9)
  IC50: 152 µM
[4]; [5]
  IC50: 152 µM
[4]; [6]
  IC50: 34.3 µg/mL
TNFα production; LPS-stimulated RAW264.7, listed as 5-bromoisatin (9)
  IC50: 38 µM
TNFα production; [6]
  IC50: 38.1 µM
TNFα production; Mus musculus, RAW264.7, 50 μg/mL
  inhibition at 50 µg/mL: 100%

## O=C1C(=C2Nc3cc(Br)ccc3C2=O)Nc2cc(Br)ccc21 [6,6 dibromoindigo]
[1]
  Cytotoxicity 3T3 ccl-92 (test concentration which causes toxicity): NA (not active at maximum test concentration 50 µg/mL)
[4]
  NO inhibitory activity (in words): minimal inhibitory activity
[4]; [5]
  IC50: > 50 µg/mL

## O=C1Nc2cc(Br)ccc2C1=C1Nc2ccccc2C1=O [6-bromoindirubin]
[3]
  viability at 24 h, 50 µg/mL: 56.2%
[4]
  NO inhibitory activity (in words): minimal inhibitory activity
[4]; [5]
  IC50: > 50 µg/mL

## Brc1ccc2cc[nH]c2c1 [6-bromoindole]
[1]
  Cytotoxicity 3T3 ccl-92 (test concentration which causes toxicity): NA (not active at maximum test concentration 50 µg/mL)
[2]
  Cytotoxicity RAW264.7 (test concentration which causes toxicity): >255.04 µM
[3]
  viability at 24 h, 50 µg/mL: 66.4%
NFκB translocation
  inhibition at 40 µg/mL: 60.7%
[4]; [5]
  IC50: 187 µM
TNFα production; LPS-stimulated RAW264.7, listed as 6-bromoindole (11)
  IC50: 150 µM
TNFα production; [6]
  IC50: 150 µM
PGE2 production; Mus musculus, Fibroblast
  IC50: 223 µM
PGE2 production; listed as 6-bromoindole (11)
  IC50: 223 µM
PGE2 production; p < 0.05 vs solvent control
  lowest concentration with significant PGE2 inhibition: 0.08 µg/mL

## O=C1Nc2cc(Br)ccc2C1=O [6-bromoisatin]
[1]
  Cytotoxicity 3T3 ccl-92 (test concentration which causes toxicity): NA (not active at maximum test concentration 50 µg/mL)
NFκB translocation
  inhibition at 40 µg/mL: 63.7%
[4]; [5]
  IC50: 120 µM
[4]; [6]
  IC50: 27.1 µg/mL
[4]
  lowest concentration with significant inhibition of NO production: 0.4 µg/mL
TNFα production; LPS-stimulated RAW264.7, listed as 6-bromoisatin (4)
  IC50: 123 µM
TNFα production; [6]
  IC50: 123 µM
PGE2 production; Mus musculus, Fibroblast
  IC50: > 221 µM
PGE2 production; Mus musculus, Fibroblast, 0.08 µg/mL
  inhibition at 0.08 µg/mL: 10%
PGE2 production; Mus musculus, Fibroblast, 50 μg/mL
  inhibition at 50 µg/mL: 40%

## O=C1Nc2ccc(I)cc2C1=O [Compound 5-iodoisatin, 5-iodoisatin]
PGE2
  inhibition of PGE2 (in words): did not inhibit
NO production
  inhibition of NO production (in words): did not inhibit

## CSc1[nH]c2cc(Br)ccc2c1OS(=O)(=O)O [Tyrindoxyl sulfate, tyrindoxyl sulfate]
[1]
  Cytotoxicity 3T3 ccl-92 (test concentration which causes toxicity): NA (not active at maximum test concentration 50 µg/mL)
[4]; [5]
  IC50: > 50 µg/mL

## C[C@@H]1C[C@H]2[C@@H]3CCC4=CC(=O)C=C[C@]4(C)[C@@]3(F)[C@@H](O)C[C@]2(C)[C@@]1(O)C(=O)CO [dexamethasone, reference compound]
[4]; Mus musculus, RAW264.7, working concentration 2.5 µM, positive control
  inhibition at 2.5 µM: 56%

## O=C1Nc2ccccc2/C1=C1/Nc2ccccc2C1=O [indirubin]
[1]
  Cytotoxicity 3T3 ccl-92 (test concentration which causes toxicity): NA (not active at maximum test concentration 50 µg/mL)
[4]
  NO inhibitory activity (in words): minimal inhibitory activity
[4]; [5]
  IC50: > 50 µg/mL

## CSC1=Nc2cc(Br)ccc2C1=O [tyrindoleninone]
[1]
  Cytotoxicity 3T3 ccl-92 (test concentration which causes toxicity): NA (not active at maximum test concentration 50 µg/mL)
[3]
  viability at 24 h, 50 µg/mL: 84.1%
[4]; [5]
  IC50: 103 µM
[4]; [6]
  IC50: 26.4 µg/mL
[4]
  lowest concentration with significant inhibition of NO production: 0.08 µg/mL
TNFα production; LPS-stimulated RAW264.7, listed as Tyrindoleninone (3)
  IC50: 157 µM
TNFα production; [6]
  IC50: 157 µM

## CSC1(C2(SC)Nc3cc(Br)ccc3C2=O)Nc2cc(Br)ccc2C1=O (centres unmarked) [tyriverdin]
[1]
  Cytotoxicity 3T3 ccl-92 (test concentration which causes toxicity): NA (not active at maximum test concentration 50 µg/mL)
[4]; 50 µg/mL (maximum test concentration), relative to DMSO control
  reduction of NO production: less than 50%
[4]; [5]
  IC50: > 97.2 µM
[4]
  lowest concentration with significant inhibition of NO production: 10 µg/mL
